Test results: US20250268884A1, “Deuterated Domperidone for Treating Gastroparesis” (CinDome Pharma, Inc., priority 2022, published 2025)

Legend:
[1] = tested on: heart rate in healthy subjects; assay: Thorough QT study, placebo-corrected change-from-baseline HR (ΔΔHR); assay type: in vivo, human; details: 400 mg moxifloxacin (Treatment C)
[2] = tested on: cardiac conduction (QRS interval) in healthy subjects; assay: Thorough QT study, placebo-corrected change-from-baseline QRS (ΔΔQRS); details: 400 mg moxifloxacin (Treatment C)
Description: (§1) Categorical T-wave morphology analysis and measurement of PR and QRS intervals were fully performed manually using a semi-automated process in 3 of the 10 ECG replicates at each time point. Final quality control and diagnostic interpretations were performed by the study cardiologist.
An unstructured covariance structure was used to specify the repeated measures at post-dose time points for subject within treatment period. The model also included a subject-specific random effect.

[3] = Thorough QT study, plasma pharmacokinetics; assay type: in vivo, human; details: 400 mg single dose, healthy subjects
Excerpt: Blood samples for PK determination were drawn at the same time points immediately after the ECG extractions.

[4] = tested on: cardiac conduction (PR interval) in healthy subjects; assay: Thorough QT study, placebo-corrected change-from-baseline PR (ΔΔPR); details: 400 mg moxifloxacin (Treatment C)
Excerpt: The secondary endpoints were: • Change-from-baseline QTcF, HR, PR, QRS intervals (ΔQTcF, ΔHR, ΔPR, and ΔQRS) • Placebo-corrected change-from-baseline HR, PR, and QRS (ΔΔHR, ΔΔPR, ΔΔQRS) • Categorical outliers for QTcF, HR, PR, and QRS • Frequency of treatment-emergent changes of T-wave morphology and U-waves presence
as §1
An unstructured covariance structure was used to specify the repeated measures at post-dose time points for subject within treatment period. The model also included a subject-specific random effect. Treatment A: 30 mg CIN-102 [representing approximate steady-state therapeutic exposures in subject population]; Treatment B: 100 mg CIN-102 [representing potential steady-state supratherapeutic exposures in subjects]; Treatment C: 400 mg open-label moxifloxacin

[5] = tested on: healthy subjects; assay: Thorough QT study, categorical outliers and T-wave morphology
Description: Categorical T-wave morphology analysis and measurement of PR and QRS intervals were fully performed manually using a semi-automated process in 3 of the 10 ECG replicates at each time point.
Treatment A: 30 mg CIN-102 [representing approximate steady-state therapeutic exposures in subject population]; Treatment B: 100 mg CIN-102 [representing potential steady-state supratherapeutic exposures in subjects]; Treatment C: 400 mg open-label moxifloxacin; Treatment D: CIN-102 placebo. A subject can appear in more than 1 category. The denominator (Total) is defined as the number of subjects or time points in the QT/QTc population for each treatment.

[6] = tested on: cardiac repolarization (QTcF) in healthy subjects; details: human, in vivo
Excerpt: The same linear model was used for moxifloxacin.
The same linear model with a treatment effect-specific intercept as in the concentration-QTc analysis was used in the assay sensitivity analysis for moxifloxacin.

[7] = tested on: cardiac repolarization (QTcF) in healthy subjects; assay: Thorough QT study, by-time point analysis of ΔΔQTcF; details: for ΔΔQTcF LS Mean: 400 mg moxifloxacin (Treatment C)
Description: The primary objective of this study was to assess the effect of CIN-102 on cardiac repolarization based on baseline and placebo-corrected change in corrected QT interval using Fridericia's formula (QTcF) in healthy subjects using a concentration-QTc analysis (primary analysis). Serial ECGs were extracted from continuous ECG recordings at prespecified time points starting at least one hour prior to dosing and ending approximately 48 hours post-dose in each period.
Primary analysis was based on concentration-QTc modeling of the relationship between plasma drug concentrations and change-from-baseline QTcF (ΔQTcF) with the intent to exclude an effect of placebo-corrected ΔQTcF (ΔΔQTcF) >10 milliseconds (ms) at clinically relevant plasma levels.
The study was a randomized, partially double-blind, active- and placebo-controlled, single dose, four-period, crossover study in healthy subjects 18-55 years of age.
In each treatment period, continuous 12-lead ECGs were recorded starting at least one hour prior to dosing and ending approximately 48 hours post-dose. Twelve-lead ECGs were extracted in up to 10 replicates at the central ECG laboratory (ERT, Philadelphia, PA) at the following time points in each period: at 3 time points within one hour prior to dosing (−45, −30 and −15 minutes) and at 0.5, 1, 1.5, 2, 2.5, 3, 4, 5, 6, 8, 12, 24, 36, and 48 hours after each dose. Subjects were supinely resting for at least 10 minutes before and 5 minutes after each time point. When ECG extractions coincided with safety, ECGs, vital signs assessment, and blood draws, procedures were carried out in said order. No PK or other laboratory draws were performed and the subject was not approached until at least 5 minutes had elapsed after the 5-minute window for 12-lead ECG extraction for QT analysis.
ECG intervals were measured by the core laboratory in a blinded manner using the Early Precision QT technique (EPQT). The ECG database was locked before any statistical analysis was undertaken.
At each nominal time point specified in the protocol, up to 10 ECG replicates were extracted with TQT Plus methods. All readable cardiac cycles from these ECG replicates were assessed for multiple quality metrics, including beat stability, HR changes, noise, and other parameters, and were categorized into high and low confidence rank. All low confidence beats were fully reviewed and adjudicated manually by ECG technicians using pass-fail criteria. The beats found acceptable by manual review were included in the analysis.
An unstructured covariance structure was used to specify the repeated measures at post-dose time points for subject within treatment period. The model also included a subject-specific random effect. Treatment A: 30 mg CIN-102 [representing approximate steady-state therapeutic exposures in subject population] Treatment B: 100 mg CIN-102 [representing potential steady-state supratherapeutic exposures in subjects] Treatment C: 400 mg open-label moxifloxacin.

[8] = 400 mg moxifloxacin (Treatment C), Total 51 subjects
[9] = 400 mg moxifloxacin (Treatment C), Total 762 time points
[10] = Treatment C: 400 mg open-label moxifloxacin, of 51 subjects
[11] = Treatment C: 400 mg open-label moxifloxacin, of 762 time points

COc1c(N2C[C@@H]3CCCN[C@@H]3C2)c(F)cc2c(=O)c(C(=O)O)cn(C3CC3)c12 [moxifloxacin]
ΔΔHR LS Mean ([1]; 0.5 H Post Dose): 1.9 bpm | ΔΔHR LS Mean ([1]; 1 H Post Dose): 2.2 bpm | ΔΔHR LS Mean ([1]; 1.5 H Post Dose): 1.0 bpm | ΔΔHR LS Mean ([1]; 2 H Post Dose): 1.3 bpm | ΔΔHR LS Mean ([1]; 2.5 H Post Dose): −0.3 bpm | ΔΔHR LS Mean ([1]; 3 H Post Dose): −0.0 bpm | ΔΔHR LS Mean ([1]; 4 H Post Dose): 0.7 bpm | ΔΔHR LS Mean ([1]; 5 H Post Dose): −0.0 bpm | ΔΔHR LS Mean ([1]; 6 H Post Dose): −1.3 bpm | ΔΔHR LS Mean ([1]; 8 H Post Dose): 0.7 bpm | ΔΔHR LS Mean ([1]; 12 H Post Dose): −1.9 bpm | ΔΔHR LS Mean ([1]; 24 H Post Dose): −0.1 bpm | ΔΔHR LS Mean ([1]; 36 H Post Dose): −0.3 bpm | ΔΔHR LS Mean ([1]; 48 H Post Dose): 0.8 bpm | ΔΔQRS LS Mean ([2]; 0.5 H Post Dose): 0.1 ms | ΔΔQRS LS Mean ([2]; 1 H Post Dose): 0.5 ms | ΔΔQRS LS Mean ([2]; 1.5 H Post Dose): 0.3 ms | ΔΔQRS LS Mean ([2]; 2 H Post Dose): 0.4 ms | ΔΔQRS LS Mean ([2]; 2.5 H Post Dose): 0.4 ms | ΔΔQRS LS Mean ([2]; 3 H Post Dose): 0.6 ms | ΔΔQRS LS Mean ([2]; 4 H Post Dose): 0.1 ms | ΔΔQRS LS Mean ([2]; 5 H Post Dose): 0.7 ms | ΔΔQRS LS Mean ([2]; 6 H Post Dose): -0.1 ms | ΔΔQRS LS Mean ([2]; 8 H Post Dose): 0.5 ms | ΔΔQRS LS Mean ([2]; 12 H Post Dose): 0.1 ms | ΔΔQRS LS Mean ([2]; 24 H Post Dose): 0.0 ms | ΔΔQRS LS Mean ([2]; 36 H Post Dose): 0.5 ms | ΔΔQRS LS Mean ([2]; 48 H Post Dose): 0.6 ms | geometric mean peak moxifloxacin concentration [3]: 1552.6 ng/mL | ΔΔPR LS Mean ([4]; 0.5 H Post Dose): -3.4 ms | ΔΔPR LS Mean ([4]; 1 H Post Dose): -2.9 ms | ΔΔPR LS Mean ([4]; 1.5 H Post Dose): -3.6 ms | ΔΔPR LS Mean ([4]; 2 H Post Dose): -2.5 ms | ΔΔPR LS Mean ([4]; 2.5 H Post Dose): -1.3 ms | ΔΔPR LS Mean ([4]; 3 H Post Dose): -2.7 ms | ΔΔPR LS Mean ([4]; 4 H Post Dose): -2.0 ms | ΔΔPR LS Mean ([4]; 5 H Post Dose): -2.0 ms | ΔΔPR LS Mean ([4]; 6 H Post Dose): -3.0 ms | ΔΔPR LS Mean ([4]; 8 H Post Dose): -0.9 ms | ΔΔPR LS Mean ([4]; 12 H Post Dose): -0.0 ms | ΔΔPR LS Mean ([4]; 24 H Post Dose): -2.5 ms | ΔΔPR LS Mean ([4]; 36 H Post Dose): 0.9 ms | ΔΔPR LS Mean ([4]; 48 H Post Dose): -0.3 ms | Subjects with QTcF >450 and <=480 ms, number [5, 8]: 6 | Subjects with QTcF >450 and <=480 ms, percent [5, 8]: (11.8%) | Subjects with QTcF >480 and <=500 ms, number [5, 8]: 0 | Subjects with QTcF >500 ms, number [5, 8]: 0 | Time points with QTcF >450 and <=480 ms, number [5, 9]: 19 | Time points with QTcF >450 and <=480 ms, percent [5, 9]: (2.5%) | Time points with QTcF >480 and <=500 ms, number [5, 9]: 0 | Time points with QTcF >500 ms, number [5, 9]: 0 | subjects with QTcF >450 and <480 ms ([5]; 400 mg moxifloxacin, at 19 time points): 6 subject(s) | QTcF outliers per change-from-baseline category: QTcF >30 and <=60 ms, subjects [5, 10]: 0 | QTcF outliers per change-from-baseline category: QTcF >60 ms, subjects [5, 10]: 0 | QTcF outliers per change-from-baseline category: QTcF >30 and <=60 ms, time points [5, 11]: 0 | QTcF outliers per change-from-baseline category: QTcF >60 ms, time points [5, 11]: 0 | subjects with treatment-emergent inverted T waves ([5]; moxifloxacin treatment period, at 1 time point): 1 subject | lower bound of the 2-sided CI of the predicted QT effect [6]: above 5 ms | peak LS mean ΔΔQTcF ([7]; 400 mg oral moxifloxacin, 3 hours post-dose): 13.3 ms | ΔΔQTcF LS Mean ([7]; 0.5 H Post Dose): 5.8 ms | ΔΔQTcF LS Mean ([7]; 1 H Post Dose): 12.2 ms | ΔΔQTcF LS Mean ([7]; 1.5 H Post Dose): 10.9 ms | ΔΔQTcF LS Mean ([7]; 2 H Post Dose): 11.3 ms | ΔΔQTcF LS Mean ([7]; 2.5 H Post Dose): 11.7 ms | ΔΔQTcF LS Mean ([7]; 3 H Post Dose): 13.3 ms | ΔΔQTcF LS Mean ([7]; 4 H Post Dose): 12.1 ms | ΔΔQTcF LS Mean ([7]; 5 H Post Dose): 10.3 ms | ΔΔQTcF LS Mean ([7]; 6 H Post Dose): 7.5 ms | ΔΔQTcF LS Mean ([7]; 8 H Post Dose): 8.9 ms | ΔΔQTcF LS Mean ([7]; 12 H Post Dose): 8.2 ms | ΔΔQTcF LS Mean ([7]; 24 H Post Dose): 4.0 ms | ΔΔQTcF LS Mean ([7]; 36 H Post Dose): 3.0 ms | ΔΔQTcF LS Mean ([7]; 48 H Post Dose): 2.6 ms
